According to ChEMBL document CHEMBL3603825, “Synthesis and evaluation of arylpiperazine-reverse amides as biased dopamine D3 receptor ligands” (Bioorg Med Chem, 2015):
Where “and” joins values, the source holds several entries; their conditions need not be identical. Identical values can stand only once.

Tests used:
D(3) dopamine receptor [1] = biological target: T1, D(3) dopamine receptor (Homo sapiens, UniProt P35462); assay: Displacement of [3H]-sulpiride from human dopamine D3 receptor expressed in HEK293 cells at 100 nM after 150 mins by liquid scintillation counting; assay type: cell-based
T1 sequence (P35462 whole entry): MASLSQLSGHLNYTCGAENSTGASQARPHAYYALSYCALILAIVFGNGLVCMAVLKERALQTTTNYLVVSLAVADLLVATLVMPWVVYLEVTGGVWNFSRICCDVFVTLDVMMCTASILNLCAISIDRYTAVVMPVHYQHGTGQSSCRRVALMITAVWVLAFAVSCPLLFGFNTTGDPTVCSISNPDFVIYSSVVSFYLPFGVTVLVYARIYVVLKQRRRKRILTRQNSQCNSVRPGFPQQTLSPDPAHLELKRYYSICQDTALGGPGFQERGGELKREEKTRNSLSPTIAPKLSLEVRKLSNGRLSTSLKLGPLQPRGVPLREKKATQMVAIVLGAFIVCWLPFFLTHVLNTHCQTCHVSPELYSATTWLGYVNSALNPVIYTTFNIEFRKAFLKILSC

D(2) dopamine receptor [2] = biological target: T2, D(2) dopamine receptor (Homo sapiens, UniProt P14416); assay: Displacement of [3H]-sulpiride from human dopamine D2 receptor expressed in HEK293 cells after 150 mins by liquid scintillation counting; assay type: cell-based
T2 sequence (P14416 whole entry): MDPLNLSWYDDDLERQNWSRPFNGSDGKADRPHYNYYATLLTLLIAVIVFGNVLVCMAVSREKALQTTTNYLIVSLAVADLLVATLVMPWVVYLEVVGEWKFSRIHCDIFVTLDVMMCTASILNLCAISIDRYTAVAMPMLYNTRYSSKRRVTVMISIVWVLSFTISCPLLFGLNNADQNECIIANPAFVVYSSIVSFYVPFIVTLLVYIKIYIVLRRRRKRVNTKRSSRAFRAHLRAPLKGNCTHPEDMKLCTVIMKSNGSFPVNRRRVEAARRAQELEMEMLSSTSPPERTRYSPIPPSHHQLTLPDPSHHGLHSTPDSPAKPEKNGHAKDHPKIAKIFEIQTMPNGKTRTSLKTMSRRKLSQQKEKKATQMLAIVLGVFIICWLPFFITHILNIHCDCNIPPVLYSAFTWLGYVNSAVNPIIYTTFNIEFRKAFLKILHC

Homo sapiens = species: Homo sapiens; assay: Selectivity ratio of Ki for human dopamine D2 receptor to Ki for human dopamine D3 receptor
D(3) dopamine receptor [3] = biological target: T1, D(3) dopamine receptor; assay: Displacement of [3H]-sulpiride from human dopamine D3 receptor expressed in HEK293 cells after 150 mins by liquid scintillation counting; assay type: cell-based
D(2) dopamine receptor [4] = biological target: T2, D(2) dopamine receptor; assay: Displacement of [3H]-sulpiride from human dopamine D2 receptor expressed in HEK293 cells at 100 nM after 150 mins by liquid scintillation counting; assay type: cell-based

SMILES | inhibition (D(3) dopamine receptor [1]) | Ki (D(2) dopamine receptor [2]) [nM] | Ratio Ki (Homo sapiens) | Ki (D(3) dopamine receptor [3]) [nM] | inhibition (D(2) dopamine receptor [4])
O=C(CCCCN1CCN(c2ccccc2F)CC1)Nc1nc2ccccc2s1 | 75.1% and 63.1% | 175 | 45 | 3.9 | 
O=C(CCCCN1CCN(c2cccc(C(F)(F)F)c2)CC1)Nc1nc2ccccc2[nH]1 | 27.7% and 34.9% |  |  |  | 34% and 14.3%
O=C(CCCCN1CCN(c2ccc(Cl)cc2Cl)CC1)Nc1nc2ccccc2s1 | 46% and 48.3% | 5590 | 63.8 | 87.6 | 14.5% and 15.2%
O=C(CCCCN1CCN(c2ccc(Cl)cc2)CC1)Nc1nc2ccccc2o1 | 56.1% |  |  |  | 40.9%
O=C(CCCCN1CCN(c2ccc(Cl)cc2)CC1)Nc1nc2ccccc2[nH]1 | 35.5% |  |  |  | 29.9%
O=C(CCCCN1CCC(O)(c2ccc(Cl)cc2)CC1)Nc1nc2ccccc2s1 | 25.8% and 7.9% |  |  |  | 33.3% and 24.8%
O=C(CCCCN1CCN(c2cccc(Cl)c2Cl)CC1)Nc1nc2ccccc2s1 | 34.8% and 12.8% |  |  |  | 30.1% and 6.9%

Further lines, results first:

inhibition (D(3) dopamine receptor [1]) | Ki (D(2) dopamine receptor [2]) [nM] | Ratio Ki (Homo sapiens) | Ki (D(3) dopamine receptor [3]) [nM] | inhibition (D(2) dopamine receptor [4]) | SMILES
33.4% and 28.7% |  |  |  | 3.1% and 2.6% | COc1ccc2nc(NC(=O)CCCCN3CCN(c4ccc(Cl)cc4F)CC3)sc2c1
 | 197 | 21 | 9.4 |  | COc1ccc2nc(NC(=O)CCCCN3CCN(c4ccc(Cl)cc4)CC3)sc2c1
60.5% and 81.6% |  |  |  | 78.8% and 54.5% | COc1ccc2nc(NC(=O)CCCCN3CCN(c4ccccc4Cl)CC3)sc2c1
65.2% |  |  |  | 57.3% | O=C(CCCCN1CCN(c2ccc(Cl)cc2)CC1)Nc1nc2ccccc2s1
45.2% |  |  |  | 30.2% | O=C(CCCCN1CCN(c2ccc(Cl)cc2)CC1)Nc1nc2ccc([N+](=O)[O-])cc2s1
30.3% and 26.2% |  |  |  | 7% and 11% | O=C(CCCCN1CCN(c2ccc(Cl)cc2)CC1)Nc1nc2ccc(Cl)cc2s1
13.4% |  |  |  | 1% | Cc1ccc2nc(NC(=O)CCCCN3CCN(c4ccc(Cl)cc4)CC3)sc2c1
1.7% |  |  |  | -4.1% | O=C(CCCCN1CCN(c2ccc(Cl)cc2)CC1)Nc1nc2cc(Cl)ccc2o1
